16 compounds from the supplement of paper PMC10627819 can be followed below.

Holding throughout (assay): Bliss interaction score (quartile over a dose matrix) (fitness difference); higher = more antagonism (negative = synergy)
Test [1] relates to S. pneumoniae D39V. A digest of the protocol: (§1)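 The Bliss score takes observed fitness and subtracts the expected fitness, calculated as a product of single-drug fitness values. Those single-drug values were inferred from the combination data. Fitness is OD595 at entry into stationary phase divided by the plate's robust no-drug mean, capped at 1, and the score is summarised by quartiles across technical, biological and donor/recipient replicates.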

Test [2] deals with B. subtilis 168. A digest of the protocol: as §1
For test [3], the system named is S. aureus Newman. A digest of the protocol:
as §1

In test [4] the test system is S. aureus DSM 20231. Summed up: as §1
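Note: first quartile when negative (synergy) and third quartile when positive (antagonism).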

Consider `O=C1CN(/N=C/c2ccc([N+](=O)[O-])o2)C(=O)N1` [Nitrofurantoin] + COc1cc(Cc2cnc(N)nc2N)cc(OC)c1OC [Trimethoprim], for which the Bliss interaction score in test [1] is -0.553; in test [2] it was -0.181; in test [3], 0.0663; in test [4], -0.0418.

On to `CC(=O)OC[C@H]1O[C@@H]([S-])[C@H](OC(C)=O)[C@@H](OC(C)=O)[C@@H]1OC(C)=O.CCP(CC)CC.[Au+]` [Auranofin] + C[C@H]1COc2c(N3CCN(C)CC3)c(F)cc3c(=O)c(C(=O)O)cn1c23 [Levofloxacin], for which the Bliss interaction score in test [1] was -0.0939; in test [2] it was 0.044; in test [3], 0.0684; in test [4], 0.0688.

Turning to `CC(=O)O[C@H]1C[C@@]2(C)[C@@H](C[C@@H](O)[C@H]3[C@@]4(C)CC[C@@H](O)[C@@H](C)[C@@H]4CC[C@@]32C)/C1=C(\CCC=C(C)C)C(=O)O` [Fusidic acid] + O=C1CN(/N=C/c2ccc([N+](=O)[O-])o2)C(=O)N1 [Nitrofurantoin], the Bliss interaction score was -0.186 in test [1], -0.0345 in test [2], -0.0292 in test [3] and -0.0226 in test [4].

With `N[C@@H]1CONC1=O` [CycloserineD] + CN(C)C(=O)C(CCN1CCC(O)(c2ccc(Cl)cc2)CC1)(c1ccccc1)c1ccccc1 [Loperamide], the Bliss interaction score is 0.289 in test [1], -0.209 in test [2], 0.0674 in test [3] and 0.0915 in test [4].

As for `CC(=O)OC[C@H]1O[C@@H]([S-])[C@H](OC(C)=O)[C@@H](OC(C)=O)[C@@H]1OC(C)=O.CCP(CC)CC.[Au+]` [Auranofin] + CC1=C\[C@@H](O)CC(=O)Cc2nc(co2)C(=O)N2CCC=C2C(=O)O[C@H](C(C)C)[C@H](C)/C=C/C(=O)NC\C=C\1 [Virginiamycin M1], the Bliss interaction score in test [1] is 0.0585; in test [2] it was -0.0329; in test [3], -0.0212; in test [4] it was -0.0753.

In the case of `O=C(N[C@H](CO)[C@H](O)c1ccc([N+](=O)[O-])cc1)C(Cl)Cl` [Chloramphenicol] + CC[C@H]1OC(=O)[C@H](C)[C@@H](O[C@H]2C[C@@](C)(OC)[C@@H](O)[C@H](C)O2)[C@H](C)[C@@H](O[C@@H]2O[C@H](C)C[C@H](N(C)C)[C@H]2O)[C@](C)(OC)C[C@@H](C)C(=O)[C@H](C)[C@@H](O)[C@]1(C)O [Clarithromycin], the Bliss interaction score in test [1] was 0.0359; in test [2] it was -0.0459; in test [3], -0.129; in test [4] it was -0.158.

For the compound `CC(=O)OC[C@H]1O[C@@H]([S-])[C@H](OC(C)=O)[C@@H](OC(C)=O)[C@@H]1OC(C)=O.CCP(CC)CC.[Au+]` [Auranofin] + CCN(CC)CCOC(=O)c1ccc(N)cc1 [Procaine], the Bliss interaction score is -0.0391 in test [1], -0.0372 in test [2], -0.0631 in test [3] and -0.0516 in test [4].

For `N[C@@H]1CONC1=O` [CycloserineD] + CO[C@@]12[C@H](COC(N)=O)C3=C(C(=O)C(C)=C(N)C3=O)N1C[C@@H]1N[C@@H]12 [MitomycinC], the Bliss interaction score was 0.108 in test [1], 0.0912 in test [2], -0.0532 in test [3] and -0.0633 in test [4].

With `CC[C@H]1OC(=O)[C@H](C)[C@@H](O[C@H]2C[C@@](C)(OC)[C@@H](O)[C@H](C)O2)[C@H](C)[C@@H](O[C@@H]2O[C@H](C)C[C@H](N(C)C)[C@H]2O)[C@](C)(OC)C[C@@H](C)C(=O)[C@H](C)[C@@H](O)[C@]1(C)O` [Clarithromycin] + CCCCCCCCCC(=O)N[C@@H]1[C@H]([C@@H]([C@H](O[C@H]1OC2=C3C=C4C=C2OC5=C(C=C(C=C5)[C@H]([C@H]6C(=O)N[C@@H](C7=C(C(=CC(=C7)O)OC8[C@H]([C@H]([C@@H]([C@H](O8)CO)O)O)O)C9=C(C=CC(=C9)[C@H](C(=O)N6)NC(=O)[C@@H]4NC(=O)[C@@H]1C2=CC(=CC(=C2)OC2=C(C=CC(=C2)[C@H](C(=O)N[C@H](CC2=CC(=C(O3)C=C2)Cl)C(=O)N1)N)O)O)O)C(=O)O)O[C@H]1[C@@H]([C@H]([C@@H]([C@H](O1)CO)O)O)NC(=O)C)Cl)CO)O)O [Teicoplanin], the Bliss interaction score in test [1] (main component drawn) was -0.0509; in test [2] (main component drawn), 0.0401; in test [3] (main component drawn) it was 0.173; in test [4] (main component drawn), 0.099.

With `CC(=O)O[C@H]1C[C@@]2(C)[C@@H](C[C@@H](O)[C@H]3[C@@]4(C)CC[C@@H](O)[C@@H](C)[C@@H]4CC[C@@]32C)/C1=C(\CCC=C(C)C)C(=O)O` [Fusidic acid] + CC[C@H]1OC(=O)[C@H](C)C(=O)[C@H](C)[C@@H](O[C@@H]2O[C@H](C)C[C@H](N(C)C)[C@H]2O)[C@](C)(OC)C[C@@H](C)C(=O)[C@H](C)[C@H]2N(CCCCn3cnc(-c4cccnc4)c3)C(=O)O[C@]12C [Telithromycin], the Bliss interaction score is -0.0347 in test [1], -0.0755 in test [2], 0.0161 in test [3] and -0.0334 in test [4].

`CC(=O)OC[C@H]1O[C@@H]([S-])[C@H](OC(C)=O)[C@@H](OC(C)=O)[C@@H]1OC(C)=O.CCP(CC)CC.[Au+]` [Auranofin] + CC(=O)O[C@H]1C[C@@]2(C)[C@@H](C[C@@H](O)[C@H]3[C@@]4(C)CC[C@@H](O)[C@@H](C)[C@@H]4CC[C@@]32C)/C1=C(\CCC=C(C)C)C(=O)O [Fusidic acid]: the Bliss interaction score in test [1] was -0.0761; in test [2] it was 0.0389; in test [3], 0.0311; in test [4] it was 0.019.

`N[C@@H]1CONC1=O` [CycloserineD] + C[C@@H](O)[C@H]1C(=O)N2C(C(=O)O)=C(SCCNC=N)C[C@H]12 [Imipenem]: the Bliss interaction score in test [1] was -0.235; in test [2], 0.0545; in test [3], -0.0358; in test [4], 0.0715.

For the compound `N[C@@H]1CONC1=O` [CycloserineD] + C/C(=C\C(=O)OCCCCCCCCC(=O)O)C[C@@H]1OC[C@H](C[C@@H]2O[C@H]2[C@@H](C)[C@H](C)O)[C@@H](O)[C@H]1O [Pseudomonic acid], the Bliss interaction score in test [1] is 0.136; in test [2] it was -0.0491; in test [3], -0.0141; in test [4], 0.009.

Regarding `CCC[C@@H]1C[C@@H](C(=O)N[C@@H]([C@H]2O[C@H](SC)[C@H](O)[C@@H](O)[C@H]2O)[C@H](C)Cl)N(C)C1` [Clindamycin] + N[C@@H]1CONC1=O [CycloserineD], the Bliss interaction score in test [1] is 0.165; in test [2] it was 0.0351; in test [3] it was 0.0633; in test [4], -0.101.

Turning to `O=C(N[C@H](CO)[C@H](O)c1ccc([N+](=O)[O-])cc1)C(Cl)Cl` [Chloramphenicol] + CC[C@H]1OC(=O)[C@H](C)[C@@H](O[C@H]2C[C@@](C)(OC)[C@@H](O)[C@H](C)O2)[C@H](C)[C@@H](O[C@@H]2O[C@H](C)C[C@H](N(C)C)[C@H]2O)[C@](C)(O)C[C@@H](C)C(=O)[C@H](C)[C@@H](O)[C@]1(C)O [Erythromycin], the Bliss interaction score in test [1] was 0.0269; in test [2], 0.0488; in test [3] it was -0.103; in test [4], 0.0318.

In the case of `CC(=O)OC[C@H]1O[C@@H]([S-])[C@H](OC(C)=O)[C@@H](OC(C)=O)[C@@H]1OC(C)=O.CCP(CC)CC.[Au+]` [Auranofin] + O=C(N[C@H](CO)[C@H](O)c1ccc([N+](=O)[O-])cc1)C(Cl)Cl [Chloramphenicol], the Bliss interaction score in test [1] is -0.0406; in test [2], 0.0717; in test [3] it was 0.0594; in test [4], 0.0319.
